Data published in the NIST ThermoML archive (doi:10.1021/je050169y).
± gives the expanded uncertainty stated by the source.

Columns and labels:
[1] = 101 kPa, Liquid
[2] = xn = mol fraction of the nth substance listed; conditions: 101 kPa, Liquid

CCCCO [butan-1-ol]
[1]
Conditions | mass density [kg/m3] | speed of sound [m/s] | viscosity [mPa·s]
303.15 K | 802.31 ± 0.86 | 1227 ± 4 | 2.274 ± 0.054
313.15 K | 794.37 ± 0.89 | 1193 ± 3 | 1.783 ± 0.043

CCCCO [butan-1-ol] + ClC(Cl)Cl
[2], x2 = 0
Conditions | mass density [kg/m3] | speed of sound [m/s] | viscosity [mPa·s]
303.15 K | 802.31 ± 0.86 | 1227 ± 4 | 2.274 ± 0.054
313.15 K | 794.37 ± 0.89 | 1193 ± 3 | 1.783 ± 0.043

CCCO [propan-1-ol]
[1]
Conditions | mass density [kg/m3] | speed of sound [m/s] | viscosity [mPa·s]
303.15 K | 796.66 ± 0.8 | 1193 ± 3 | 1.719 ± 0.041
313.15 K | 788.31 ± 0.83 | 1159 ± 3 | 1.363 ± 0.033

CCCO [propan-1-ol] + ClC(Cl)Cl
[2], x2 = 0
Conditions | mass density [kg/m3] | speed of sound [m/s] | viscosity [mPa·s]
303.15 K | 796.66 ± 0.8 | 1193 ± 3 | 1.719 ± 0.041
313.15 K | 788.31 ± 0.83 | 1159 ± 3 | 1.363 ± 0.033

ClC(Cl)Cl [trichloromethane]
[1]
Conditions | mass density [kg/m3] | speed of sound [m/s] | viscosity [mPa·s]
303.15 K | 1469.21 ± 1.9 | 969 ± 3 | 0.534 ± 0.015
313.15 K | 1449.74 ± 1.9 | 934 ± 3 | 0.491 ± 0.014

ClC(Cl)Cl [trichloromethane] + CCCCO
[2]
Conditions | mass density, 303.15 K [kg/m3] | mass density, 313.15 K [kg/m3] | speed of sound, 303.15 K [m/s] | speed of sound, 313.15 K [m/s] | viscosity, 303.15 K [mPa·s] | viscosity, 313.15 K [mPa·s]
x1 = 0.0512 | – | 823.95 ± 0.93 | – | 1172 ± 3 | – | 1.67 ± 0.041
x1 = 0.0513 | 832.44 ± 0.91 | – | 1207 ± 4 | – | 2.125 ± 0.051 | –
x1 = 0.0999 | 861.44 ± 0.95 | – | 1189 ± 3 | – | 1.989 ± 0.048 | –
x1 = 0.1 | – | 852.45 ± 0.97 | – | 1154 ± 3 | – | 1.566 ± 0.039
x1 = 0.149 | 890.91 ± 1 | 881.47 ± 1 | 1170 ± 3 | 1135 ± 3 | 1.829 ± 0.044 | 1.45 ± 0.036
x1 = 0.2009 | 922.47 ± 1.1 | 912.53 ± 1.1 | 1152 ± 3 | 1116 ± 3 | 1.683 ± 0.041 | 1.341 ± 0.033
x1 = 0.2506 | 953.06 ± 1.1 | 942.58 ± 1.1 | 1134 ± 3 | 1098 ± 3 | 1.531 ± 0.037 | 1.23 ± 0.031
x1 = 0.2999 | 983.75 ± 1.1 | 972.85 ± 1.2 | 1118 ± 3 | 1081 ± 3 | 1.394 ± 0.034 | 1.136 ± 0.029
x1 = 0.3659 | 1025.5 ± 1.2 | 1013.85 ± 1.2 | 1097 ± 3 | 1060 ± 3 | 1.224 ± 0.03 | 1.018 ± 0.026
x1 = 0.407 | 1051.86 ± 1.3 | 1039.75 ± 1.3 | 1084 ± 3 | 1047 ± 3 | 1.137 ± 0.028 | 0.943 ± 0.024
x1 = 0.4515 | 1080.69 ± 1.3 | 1067.95 ± 1.3 | 1071 ± 3 | 1034 ± 3 | 1.045 ± 0.026 | 0.878 ± 0.023
x1 = 0.4997 | 1112.25 ± 1.4 | 1099 ± 1.4 | 1056 ± 3 | 1019 ± 3 | 0.96 ± 0.024 | 0.82 ± 0.021
x1 = 0.5502 | 1145.88 ± 1.4 | 1132.03 ± 1.4 | 1043 ± 3 | 1006 ± 3 | 0.877 ± 0.023 | 0.758 ± 0.02
x1 = 0.6011 | 1180.26 ± 1.5 | – | 1030 ± 3 | – | 0.82 ± 0.021 | –
x1 = 0.6012 | – | 1165.78 ± 1.5 | – | 993 ± 3 | – | 0.712 ± 0.019
x1 = 0.6527 | 1215.51 ± 1.5 | 1200.35 ± 1.5 | 1018 ± 3 | 981 ± 3 | 0.754 ± 0.02 | 0.671 ± 0.018
x1 = 0.702 | 1249.87 ± 1.6 | – | 1007 ± 3 | – | 0.709 ± 0.019 | –
x1 = 0.7021 | – | 1234 ± 1.6 | – | 970 ± 3 | – | 0.633 ± 0.017
x1 = 0.7519 | 1285.1 ± 1.6 | 1268.52 ± 1.6 | 997 ± 3 | 961 ± 3 | 0.676 ± 0.018 | 0.615 ± 0.017
x1 = 0.802 | 1320.98 ± 1.7 | – | 989 ± 3 | – | 0.636 ± 0.017 | –
x1 = 0.8021 | – | 1303.85 ± 1.7 | – | 952 ± 3 | – | 0.579 ± 0.016
x1 = 0.8517 | 1357.17 ± 1.7 | – | 981 ± 3 | – | 0.622 ± 0.017 | –
x1 = 0.8518 | – | 1339.4 ± 1.7 | – | 945 ± 3 | – | 0.572 ± 0.016
x1 = 0.9023 | 1394.7 ± 1.8 | – | 975 ± 3 | – | 0.587 ± 0.016 | –
x1 = 0.9024 | – | 1376.18 ± 1.8 | – | 939 ± 3 | – | 0.547 ± 0.015
x1 = 0.9509 | 1431.43 ± 1.8 | – | 971 ± 3 | – | 0.569 ± 0.016 | –
x1 = 0.951 | – | 1412.42 ± 1.8 | – | 936 ± 3 | – | 0.524 ± 0.015
x1 = 1 | 1469.21 ± 1.9 | 1449.74 ± 1.9 | 969 ± 3 | 934 ± 3 | 0.534 ± 0.015 | 0.491 ± 0.014

ClC(Cl)Cl [trichloromethane] + CCCO
[2]
Conditions | mass density, 303.15 K [kg/m3] | mass density, 313.15 K [kg/m3] | speed of sound, 303.15 K [m/s] | speed of sound, 313.15 K [m/s] | viscosity, 303.15 K [mPa·s] | viscosity, 313.15 K [mPa·s]
x1 = 0.0521 | 834.23 ± 0.85 | 825.28 ± 0.89 | 1171 ± 3 | 1136 ± 3 | 1.628 ± 0.039 | 1.302 ± 0.032
x1 = 0.0996 | 868.17 ± 0.9 | 858.68 ± 0.94 | 1153 ± 3 | 1117 ± 3 | 1.541 ± 0.037 | 1.243 ± 0.031
x1 = 0.1504 | 904.1 ± 0.96 | 894.03 ± 1 | 1134 ± 3 | 1098 ± 3 | 1.435 ± 0.035 | 1.163 ± 0.029
x1 = 0.201 | 939.51 ± 1 | 928.92 ± 1.1 | 1116 ± 3 | 1080 ± 3 | 1.331 ± 0.032 | 1.077 ± 0.027
x1 = 0.2498 | 973.47 ± 1.1 | 962.29 ± 1.1 | 1100 ± 3 | 1064 ± 3 | 1.233 ± 0.03 | 1.013 ± 0.026
x1 = 0.3057 | 1011.95 ± 1.1 | 1000.09 ± 1.2 | 1083 ± 3 | 1047 ± 3 | 1.113 ± 0.028 | 0.919 ± 0.023
x1 = 0.3499 | 1042.15 ± 1.2 | 1029.85 ± 1.2 | 1070 ± 3 | 1034 ± 3 | 1.044 ± 0.026 | 0.872 ± 0.022
x1 = 0.4031 | 1078.28 ± 1.2 | 1065.26 ± 1.3 | 1056 ± 3 | 1018 ± 3 | 0.956 ± 0.024 | 0.811 ± 0.021
x1 = 0.451 | 1110.46 ± 1.3 | 1097 ± 1.3 | 1042 ± 3 | 1006 ± 3 | 0.884 ± 0.023 | 0.752 ± 0.02
x1 = 0.5056 | 1147.02 ± 1.4 | 1132.88 ± 1.4 | 1028 ± 3 | 992 ± 3 | 0.813 ± 0.021 | 0.703 ± 0.019
x1 = 0.5541 | 1179.18 ± 1.4 | 1164.5 ± 1.4 | 1017 ± 3 | 981 ± 3 | 0.76 ± 0.02 | 0.662 ± 0.018
x1 = 0.5994 | 1209.1 ± 1.5 | 1193.91 ± 1.5 | 1007 ± 3 | 972 ± 3 | 0.723 ± 0.019 | 0.635 ± 0.017
x1 = 0.6511 | 1243.11 ± 1.5 | 1227.27 ± 1.5 | 997 ± 3 | 961 ± 3 | 0.68 ± 0.018 | 0.605 ± 0.016
x1 = 0.7033 | 1277.26 ± 1.6 | 1260.87 ± 1.6 | 988 ± 3 | 951 ± 3 | 0.654 ± 0.018 | 0.592 ± 0.016
x1 = 0.7506 | 1308.1 ± 1.6 | 1291.08 ± 1.6 | 980 ± 3 | 944 ± 3 | 0.629 ± 0.017 | 0.57 ± 0.016
x1 = 0.8 | 1340.17 ± 1.7 | 1322.66 ± 1.7 | 974 ± 3 | 939 ± 3 | 0.608 ± 0.017 | 0.558 ± 0.015
x1 = 0.8507 | 1373.01 ± 1.7 | 1354.88 ± 1.8 | 970 ± 3 | 933 ± 3 | 0.596 ± 0.016 | 0.547 ± 0.015
x1 = 0.9001 | 1404.92 ± 1.8 | 1386.24 ± 1.8 | 967 ± 3 | 931 ± 3 | 0.579 ± 0.016 | 0.531 ± 0.015
x1 = 0.9484 | 1436.03 ± 1.8 | 1416.96 ± 1.9 | 966 ± 3 | 931 ± 3 | 0.562 ± 0.016 | 0.517 ± 0.015
x1 = 1 | 1469.21 ± 1.9 | 1449.74 ± 1.9 | 969 ± 3 | 934 ± 3 | 0.534 ± 0.015 | 0.491 ± 0.014
